According to patent US8017786B2, “Substituted β-phenyl-α-hydroxy-propanoic acid, synthesis method and use thereof” (Northwest University, priority 2006, dated 2011):

System: anesthetized rats
Assay: Blood pressure and left ventricular function of anesthetized rats
Type: in vivo, rat
Set-up: contractive pressure, change ratio: unit not given here
Procedure: All data were input into PowerLab/8Sp data acquisition and processing system via RM-6000 multi-channel polygraph, and recorded, analyzed and processed by PowerLab/8Sp.
The abdomen was opened 1.5 cm below xiphoid bone to isolate duodenum, a small incision was formed on the duodenum away from blood vessels by ophthalmic scissors, a catheter was inserted and the incision was fixed by suture for administration. After the end of operation and a further waiting period of 30 min, normal data were recorded once the indexes to be monitored were stable.
Test drugs were duodenally administered via the catheter, and the indexes were monitored 5, 15, 30, 60, 90 and 120 min after the administration. The change ratios of the indexes were calculated in accordance with the following formula, and were used for statistic analysis among groups.

[1] = 4.5 mg/kg duodenal, 5 min after administration
[2] = 4.5 mg/kg duodenal, 15 min after administration
[3] = 4.5 mg/kg duodenal, 30 min after administration
[4] = 4.5 mg/kg duodenal, 60 min after administration
[5] = 4.5 mg/kg duodenal, 90 min after administration
[6] = 4.5 mg/kg duodenal, 120 min after administration
[7] = 4.5 mg/kg duodenal, before administration
[8] = 9 mg/kg duodenal, 5 min after administration
[9] = 9 mg/kg duodenal, 15 min after administration
[10] = 9 mg/kg duodenal, 30 min after administration
[11] = 9 mg/kg duodenal, 60 min after administration

CC1(C)C2CCC1(C)C(OC(=O)C(O)Cc1ccc(O)c(O)c1)C2 (stereo not drawn) [bornyl salvianate ester, bornyl β-(3,4-dihydroxylphenyl)-α-hydroxylpropionate ester]
mean arterial pressure, systolic pressure and diastolic pressure (in words) (4.5 mg/kg): exhibited no significant change
change-rate of left intraventricular pressure MAX [1]: 5429.3 ± 1279.7 mmHg/s
change-rate of left intraventricular pressure MAX, change ratio [1]: 0.4 ± 11.0
change-rate of left intraventricular pressure, -MAX [1]: −4152.9 ± 764.8 mm/Hg/s
change-rate of left intraventricular pressure, -MAX, change ratio [1]: −2.2 ± 8.2
contractive pressure [1]: 126.54 ± 25.94 mmHg
contractive pressure, change ratio [1]: −1.96 ± 11.16
diastolic pressure [1]: 68.68 ± 15.82 mmHg
diastolic pressure, change ratio [1]: −0.08 ± 12.81
heart rate [1]: 337.41 ± 47.67 beat/min
heart rate, change ratio [1]: 2.49 ± 7.18
left intraventricular pressure [1]: 128.67 ± 18.24 mmHg
left intraventricular pressure, change ratio [1]: 0.38 ± 6.72
mean arterial pressure [1]: 87.97 ± 18.89 mmHg
mean arterial pressure, change ratio [1]: −1.01 ± 11.95
change-rate of left intraventricular pressure MAX [2]: 5435.9 ± 1216.6 mmHg/s
change-rate of left intraventricular pressure MAX, change ratio [2]: 0.9 ± 11.4
change-rate of left intraventricular pressure, -MAX [2]: −4141.1 ± 755.6 mm/Hg/s
change-rate of left intraventricular pressure, -MAX, change ratio [2]: −2.4 ± 9.1
contractive pressure [2]: 128.80 ± 24.39 mmHg
contractive pressure, change ratio [2]: −0.05 ± 10.13
diastolic pressure [2]: 70.87 ± 15.08 mmHg
diastolic pressure, change ratio [2]: 3.38 ± 12.17
heart rate [2]: 347.56 ± 47.18 beat/min
heart rate, change ratio [2]: 5.67 ± 7.58
left intraventricular pressure [2]: 130.13 ± 18.12 mmHg
left intraventricular pressure, change ratio [2]: 1.51 ± 6.25
mean arterial pressure [2]: 90.18 ± 17.91 mmHg
mean arterial pressure, change ratio [2]: 1.66 ± 11.07
change-rate of left intraventricular pressure MAX [3]: 5408.8 ± 1352.2 mmHg/s
change-rate of left intraventricular pressure MAX, change ratio [3]: 0.1 ± 13.5
change-rate of left intraventricular pressure, -MAX [3]: −4090.5 ± 704.6 mm/Hg/s
change-rate of left intraventricular pressure, -MAX, change ratio [3]: −3.6 ± 6.5
contractive pressure [3]: 129.90 ± 23.86 mmHg
contractive pressure, change ratio [3]: 0.93 ± 11.47
diastolic pressure [3]: 71.78 ± 15.67 mmHg
diastolic pressure, change ratio [3]: 4.78 ± 14.39
heart rate [3]: 348.91 ± 52.11 beat/min
heart rate, change ratio [3]: 5.97 ± 9.72
left intraventricular pressure [3]: 129.67 ± 17.48 mmHg
left intraventricular pressure, change ratio [3]: 1.22 ± 7.07
mean arterial pressure [3]: 91.15 ± 17.95 mmHg
mean arterial pressure, change ratio [3]: 2.91 ± 12.81
change-rate of left intraventricular pressure MAX [4]: 5760.1 ± 1393.5 mmHg/s
change-rate of left intraventricular pressure MAX, change ratio [4]: 7.1 ± 18.3
change-rate of left intraventricular pressure, -MAX [4]: −4146.8 ± 820.5 mm/Hg/s
change-rate of left intraventricular pressure, -MAX, change ratio [4]: −2.4 ± 10.2
contractive pressure [4]: 135.97 ± 22.80 mmHg
contractive pressure, change ratio [4]: 5.64 ± 8.91
diastolic pressure [4]: 76.78 ± 14.34 mmHg
diastolic pressure, change ratio [4]: 12.13 ± 9.39
heart rate [4]: 365.43 ± 32.77 beat/min
heart rate, change ratio [4]: 12.05 ± 12.32
left intraventricular pressure [4]: 134.39 ± 19.12 mmHg
left intraventricular pressure, change ratio [4]: 4.73 ± 6.55
mean arterial pressure [4]: 96.51 ± 16.69 mmHg
mean arterial pressure, change ratio [4]: 8.95 ± 8.95
change-rate of left intraventricular pressure MAX [5]: 5706.1 ± 1390.6 mmHg/s
change-rate of left intraventricular pressure MAX, change ratio [5]: 7.6 ± 26.1
change-rate of left intraventricular pressure, -MAX [5]: −4156.0 ± 947.7 mm/Hg/s
change-rate of left intraventricular pressure, -MAX, change ratio [5]: −2.2 ± 15.9
contractive pressure [5]: 131.95 ± 25.10 mmHg
contractive pressure, change ratio [5]: 2.56 ± 13.11
diastolic pressure [5]: 74.71 ± 18.13 mmHg
diastolic pressure, change ratio [5]: 8.47 ± 17.66
heart rate [5]: 369.71 ± 35.54 beat/min
heart rate, change ratio [5]: 13.31 ± 13.05
left intraventricular pressure [5]: 130.91 ± 17.22 mmHg
left intraventricular pressure, change ratio [5]: 2.39 ± 9.41
mean arterial pressure [5]: 93.79 ± 20.11 mmHg
mean arterial pressure, change ratio [5]: 5.62 ± 15.30
change-rate of left intraventricular pressure MAX [6]: 5512.7 ± 1250.1 mmHg/s
change-rate of left intraventricular pressure MAX, change ratio [6]: 3.6 ± 20.4
change-rate of left intraventricular pressure, -MAX [6]: −3995.2 ± 837.9 mm/Hg/s
change-rate of left intraventricular pressure, -MAX, change ratio [6]: −5.6 ± 14.3
contractive pressure [6]: 128.62 ± 28.30 mmHg
contractive pressure, change ratio [6]: −0.49 ± 12.28
diastolic pressure [6]: 72.46 ± 20.46 mmHg
diastolic pressure, change ratio [6]: 4.39 ± 16.80
heart rate [6]: 360.36 ± 51.93 beat/min
heart rate, change ratio [6]: 9.40 ± 6.30
left intraventricular pressure [6]: 129.15 ± 18.53 mmHg
left intraventricular pressure, change ratio [6]: 0.79 ± 7.76
mean arterial pressure [6]: 91.18 ± 22.76 mmHg
mean arterial pressure, change ratio [6]: 2.06 ± 14.37
change-rate of left intraventricular pressure MAX [7]: 5380.2 ± 913.7 mmHg/s
change-rate of left intraventricular pressure, -MAX [7]: −4246.1 ± 669.3 mm/Hg/s
contractive pressure [7]: 129.06 ± 22.13 mmHg
diastolic pressure [7]: 68.47 ± 11.97 mmHg
heart rate [7]: 329.43 ± 43.77 beat/min
left intraventricular pressure [7]: 128.68 ± 20.18 mmHg
mean arterial pressure [7]: 88.67 ± 14.74 mmHg
effect on the heart rate (in words) (4.5 mg/kg, 9 mg/kg and 18 mg/kg doses): no significant effects
−dp/dt (in words) (9 mg/kg and 18 mg/kg, significant at 60 and 120 min): exhibited a decrease tendency
change-rate of left intraventricular pressure MAX [8]: 5388.9 ± 1187.0 mmHg/s
change-rate of left intraventricular pressure MAX, change ratio [8]: −0.7 ± 6.7
change-rate of left intraventricular pressure, -MAX [8]: −3908.5 ± 1013.0 mm/Hg/s
change-rate of left intraventricular pressure, -MAX, change ratio [8]: 0.0 ± 11.2
contractive pressure [8]: 131.10 ± 24.38 mmHg
contractive pressure, change ratio [8]: −1.14 ± 6.68
diastolic pressure [8]: 68.02 ± 18.77 mmHg
diastolic pressure, change ratio [8]: −2.47 ± 10.80
heart rate [8]: 374.04 ± 47.60 beat/min
heart rate, change ratio [8]: 0.28 ± 7.83
left intraventricular pressure [8]: 128.87 ± 25.63 mmHg
left intraventricular pressure, change ratio [8]: −0.03 ± 8.26
mean arterial pressure [8]: 89.05 ± 20.26 mmHg
mean arterial pressure, change ratio [8]: −1.79 ± 8.69
change-rate of left intraventricular pressure MAX [9]: 5321.6 ± 1133.0 mmHg/s
change-rate of left intraventricular pressure MAX, change ratio [9]: −1.6 ± 7.4
change-rate of left intraventricular pressure, -MAX [9]: −3792.8 ± 979.5 mm/Hg/s
change-rate of left intraventricular pressure, -MAX, change ratio [9]: −2.9 ± 10.2
contractive pressure [9]: 127.85 ± 23.92 mmHg
contractive pressure, change ratio [9]: −3.57 ± 7.14
diastolic pressure [9]: 66.18 ± 19.00 mmHg
diastolic pressure, change ratio [9]: −5.33 ± 9.64
heart rate [9]: 374.93 ± 47.51 beat/min
heart rate, change ratio [9]: 0.48 ± 7.36
left intraventricular pressure [9]: 127.06 ± 25.57 mmHg
left intraventricular pressure, change ratio [9]: −1.37 ± 9.10
mean arterial pressure [9]: 86.74 ± 20.25 mmHg
mean arterial pressure, change ratio [9]: −4.42 ± 8.30
change-rate of left intraventricular pressure MAX [10]: 5179.1 ± 1270.9 mmHg/s
change-rate of left intraventricular pressure MAX, change ratio [10]: −5.0 ± 7.8
change-rate of left intraventricular pressure, -MAX [10]: −3696.8 ± 997.3 mm/Hg/s
change-rate of left intraventricular pressure, -MAX, change ratio [10]: −5.5 ± 10.8
contractive pressure [10]: 122.58 ± 23.46 mmHg
contractive pressure, change ratio [10]: −7.38 ± 8.66
diastolic pressure [10]: 62.90 ± 17.46 mmHg
diastolic pressure, change ratio [10]: −9.50 ± 10.75
heart rate [10]: 361.94 ± 43.56 beat/min
heart rate, change ratio [10]: −3.00 ± 5.83
left intraventricular pressure [10]: 123.59 ± 25.06 mmHg
left intraventricular pressure, change ratio [10]: −4.07 ± 8.57
mean arterial pressure [10]: 82.79 ± 18.98 mmHg
mean arterial pressure, change ratio [10]: −8.42 ± 9.56
change-rate of left intraventricular pressure MAX [11]: 4966.9 ± 1297.4 mmHg/s
change-rate of left intraventricular pressure MAX, change ratio [11]: −9.2 ± 10.0
change-rate of left intraventricular pressure, -MAX [11]: −3569.5 ± 857.8 mm/Hg/s
change-rate of left intraventricular pressure, -MAX, change ratio [11]: −8.3 ± 10.2
contractive pressure [11]: 115.46 ± 23.90 mmHg
